Molecules are shown by their SMILES.

This assay relates to single oligonucleotide with a low probability of self-hybridization (ssDNA) (DNA, single strand) GAACAACGCTCCAACCATCGC
Put plainly: absorption and fluorescence titration. The following applies: 3 µM DOX; absorption changes, fluorescence hardly quenched.

As for `COc1cccc2c1C(=O)c1c(O)c3c(c(O)c1C2=O)C[C@@](O)(C(=O)CO)C[C@@H]3O[C@H]1C[C@H](N)[C@H](O)[C@H](C)O1`, the binding entry is reported as “weak”.

(Values after PMC8034656 (2021).)
